# Measurements from patent publication US10335409B2 (priority 2012, dated 2019).
# Legend:
# Type in all cases: cell-based, hepatitis C virus
# [1] = system: genotype 1a NS3/4a protease inhibitor resistant variant R155K transient HCV replicon in Huh-7-derived cells; experiment: Transient-transfected HCV replicon EC50, genotype 1a R155K; conditions: Hepatitis C virus, 72 h, read-out: EC50 1A R155K, transient-transfected replicon genotype 1a R155K resistant variant, 72 h
# [2] = system: genotype 4a (ED43) stable HCV replicon in Huh-7-derived cells; experiment: Stable subgenomic HCV replicon EC50, genotype 4a (Renilla luciferase); conditions: Hepatitis C virus, 72 h, read-out: EC50 4A RLUC
# Method in brief: (§1)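 Compounds, three-fold diluted, were applied to Huh-7-derived cells harbouring luciferase replicons (genotype 1a H77, 1b Con1, 2a JFH-1, 4a ED43, with strain-specific adaptive mutations). Seventy-two hours later, intracellular replication was gauged by Renilla luciferase activity and EC50 derived by regression.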
# [3] = system: genotype 1a (H77) wild type transient HCV replicon in Huh-7-derived cells; experiment: Transient-transfected HCV replicon EC50, genotype 1a wild type; conditions: Hepatitis C virus, 72 h, transient-transfected replicon genotype 1a wild type, read-out: EC50 1A WT
# [4] = system: genotype 2a (JFH-1) stable HCV replicon in Huh-7-derived cells; experiment: Stable subgenomic HCV replicon EC50, genotype 2a (Renilla luciferase); conditions: Hepatitis C virus, stable replicon genotype 2a, 72 h, read-out: EC50 2A RLUC
# Method in brief: as §1
# [5] = system: genotype 1b NS3/4a protease inhibitor resistant variant D168A transient HCV replicon in Huh-7-derived cells; experiment: Transient-transfected HCV replicon EC50, genotype 1b D168A; conditions: Hepatitis C virus, 72 h, read-out: EC50 1B D168A, transient-transfected replicon genotype 1b D168A resistant variant, 72 h
# [6] = system: genotype 3a (S52) wild type transient HCV replicon in Huh-7-derived cells; experiment: Transient-transfected HCV replicon EC50, genotype 3a wild type; conditions: Hepatitis C virus; transient-transfected replicon genotype 3a wild type, 72 h; read-out: EC50 3A WT
# [7] = system: genotype 3a (S52) stable HCV replicon in Huh-7-derived cells; experiment: Stable subgenomic HCV replicon EC50, genotype 3a (Renilla luciferase); conditions: Hepatitis C virus, 72 h, read-out: EC50 3A RLUC
# [8] = system: genotype 1a (H77) stable HCV replicon in Huh-7-derived cells; experiment: Stable subgenomic HCV replicon EC50, genotype 1a (Renilla luciferase); conditions: Hepatitis C virus, stable replicon genotype 1a, 72 h, read-out: EC50 1A RLUC
# Method in brief: as §1
# [9] = system: genotype 1b (Con1) stable HCV replicon in Huh-7-derived cells; experiment: Stable subgenomic HCV replicon EC50, genotype 1b (Renilla luciferase); conditions: Hepatitis C virus, stable replicon genotype 1b, 72 h, read-out: EC50 1B RLUC
# Method in brief: as §1
# [10] = system: genotype 1b (Con1) wild type transient HCV replicon in Huh-7-derived cells; experiment: Transient-transfected HCV replicon EC50, genotype 1b wild type; conditions: Hepatitis C virus, 72 h, transient-transfected replicon genotype 1b wild type, read-out: EC50 1B WT
SMILES,EC50 [1],EC50 [2],EC50 [3],EC50 [4],EC50 [5],EC50 [6],EC50 [7],EC50 [8],EC50 [9],EC50 [10]
"CC[C@@H]1[C@@H]2CN(C(=O)[C@H](C(C)(C)C)NC(=O)O[C@@H]3C[C@H]3CCCCCc3nc4ccc(OC)cc4nc3O2)[C@@H]1C(=O)N[C@]1(C(=O)NS(=O)(=O)C2(Cl)CC2)C[C@H]1C(F)F [Example 75, (1aR,5S,8S,9S,10R,22aR)-5-tert-butyl-N-[(1R,2R)-1-{[(1-chlorocyclopropyl)sulfonyl]carbamoyl}-2-(difluoromethyl)cyclopropyl]-9-ethyl-14-methoxy-3,6-dioxo-1,1a,3,4,5,6,9,10,18,19,20,21,22,22a-tetradecahydro-8H-7,10-methanocyclopropa[18,19][1,10,3,6]dioxadiazacyclononadecino[11,12-b]quinoxaline-8-carboxamide]",45 nM,10 nM,14 nM,18 nM,51 nM,56 nM,240 nM,9.9 nM,6.4 nM,3.5 nM
"COc1ccc2nc3c(nc2c1)O[C@H]1CN(C(=O)[C@H](C(C)(C)C)NC(=O)O[C@@]2(C)C[C@@H]2CCCCC3(F)F)[C@H](C(=O)N[C@]2(C(=O)NS(=O)(=O)C3(C)CC3)C[C@H]2C(F)F)[C@@H]1C [Example 77, (1 aS,5S,8S,9S,10R,22aS)-5-tert-butyl-N-[(1R,2R)-2-(difluoromethyl)-1-{[(1-methylcyclopropyl)sulfonyl]carbamoyl}cyclopropyl]-18,18-difluoro-14-methoxy-1a,9-dimethyl-3,6-dioxo-1,1a,3,4,5,6,9,10,18,19,20,21,22,22a-tetradecahydro-8H-7,10-methanocyclopropa[18,19][1,10,3,6]dioxadiazacyclononadecino[11,12-b]quinoxaline-8-carboxamide]",34 nM,16 nM,21 nM,29 nM,80 nM,472 nM,741 nM,23 nM,12 nM,5 nM
"COc1ccc2nc3c(nc2c1)O[C@H]1CN(C(=O)[C@H](C(C)(C)C)NC(=O)O[C@@H]2C[C@@H]4C[C@@H]4[C@H]2CCCCC3(F)F)[C@H](C(=O)N[C@]2(C(=O)NS(=O)(=O)C3(C)CC3)C[C@H]2C(F)F)[C@@H]1C [Example 81, (1aS,2aR,6S,9S,10S,11R,23aR,23bS)-6-tert-butyl-N-[(1R,2R)-2-(difluoromethyl)-1-{[(1-methylcyclopropyl)sulfonyl]carbamoyl}cyclopropyl]-19,19-difluoro-15-methoxy-10-methyl-4,7-dioxo-1a,2,2a,4,5,6,7,10,11,19,20,21,22,23,23a,23b-hexadecahydro-1H,9H-8,11-methanocyclopropa[4′,5′]cyclopenta[1′,2′:18,19][1,10,3,6]dioxadiazacyclononadecino[11,12-b]quinoxaline-9-carboxamide]",2.5 nM,4.3 nM,3.7 nM,3.6 nM,2.7 nM,4.3 nM,12 nM,4 nM,3.6 nM,2.4 nM
"C[C@@H]1[C@@H]2CN(C(=O)[C@H](C(C)(C)C)NC(=O)O[C@@H]3C[C@@H]4C[C@@H]4[C@H]3CCCCC(F)(F)c3nc4ccccc4nc3O2)[C@@H]1C(=O)N[C@]1(C(=O)NS(=O)(=O)C2(C)CC2)C[C@H]1C(F)F [Example 82, (1aS,2aR,6S,9S,10S,11R,23aR,23bS)-6-tert-butyl-N-[(1R,2R)-2-(difluoromethyl)-1-{[(1-methylcyclopropyl)sulfonyl]carbamoyl}cyclopropyl]-19,19-difluoro-10-methy-4,7-dioxo-1a,2,2a,4,5,6,7,10,11,19,20,21,22,23,23a,23b-hexadecahydro-1H,9H-8,11-methanocyclopropa[4′,5′]cyclopenta[1′,2′:18,19][1,10,3,6]dioxadiazacyclononadecino[11,12-b]quinoxaline-9-carboxamide]",6.2 nM,10 nM,7.8 nM,4.7 nM,5.7 nM,16 nM,25 nM,8.5 nM,9.3 nM,4.1 nM
"CC[C@@H]1[C@@H]2CN(C(=O)[C@H](C(C)(C)C)NC(=O)O[C@@H]3C[C@H]3CC/C=C/C(F)(F)c3nc4ccc(C#N)cc4nc3O2)[C@@H]1C(=O)N[C@]1(C(=O)NS(=O)(=O)C2(C)CC2)C[C@H]1C(F)F [Example 84, (1aR,5S,8S,9S,10R,19E,22aR)-5-tert-butyl-14-cyano-N-[(1R,2R)-2-(difluoromethyl)-1-{[(1-methylcyclopropyl)sulfonyl]carbamoyl}cyclopropyl]-9-ethyl-18,18-difluoro-3,6-dioxo-1,1a,3,4,5,6,9,10,18,21,22,22a-dodecahydro-8H-7,10-methanocyclopropa[18,19][1,10,3,6]dioxadiazacyclononadecino[11,12-b]quinoxaline-8-carboxamide]",4 nM,6.4 nM,5.4 nM,7.2 nM,5.2 nM,11 nM,27 nM,5.9 nM,5.7 nM,2.5 nM
"CC[C@@H]1[C@@H]2CN(C(=O)[C@H](C(C)(C)C)NC(=O)O[C@@H]3C[C@H]3CCCCC(F)(F)c3nc4ccc(OC(F)F)cc4nc3O2)[C@@H]1C(=O)N[C@]1(C(=O)NS(=O)(=O)C2(C)CC2)C[C@H]1C(F)F [Example 85, (1aR,5S,8S,9S,10R,22aR)-5-tert-butyl-14-(difluoromethoxy)-N-[(1R,2R)-2-(difluoromethyl)-1-{[(1-methylcyclopropyl)sulfonyl]carbamoyl}cyclopropyl]-9-ethyl-18,18-difluoro-3,6-dioxo-1,1a,3,4,5,6,9,10,18,19,20,21,22,22a-tetradecahydro-8H-7,10-methanocyclopropa[18,19][1,10,3,6]dioxadiazacyclononadecino[11,12-b]quinoxaline-8-carboxamide]",22 nM,9.2 nM,12 nM,7.7 nM,57 nM,101 nM,304 nM,16 nM,17 nM,7 nM
"CC[C@@H]1[C@@H]2CN(C(=O)[C@H](C(C)(C)C)NC(=O)O[C@@H]3C[C@H]3CCCCC(F)(F)c3nc4ccc(C#N)cc4nc3O2)[C@@H]1C(=O)N[C@]1(C(=O)NS(=O)(=O)C2(C)CC2)C[C@H]1C(F)F [Example 87, (1aR,5S,8S,9S,10R,22aR)-5-tert-butyl-14-cyano-N-[(1R,2R)-2-(difluoromethyl)-1-{[(1-methylcyclopropyl)sulfonyl]carbamoyl}cyclopropyl]-9-ethyl-18,18-difluoro-3,6-dioxo-1,1a,3,4,5,6,9,10,18,19,20,21,22,22a-tetradecahydro-8H-7,10-methanocyclopropa[18,19][1,10,3,6]dioxadiazacyclononadecino[11,12-b]quinoxaline-8-carboxamide]",2.8 nM,3.8 nM,2.9 nM,3.3 nM,4 nM,7.7 nM,14 nM,4.8 nM,3.9 nM,1.3 nM
"C=C[C@@H]1C[C@]1(NC(=O)[C@@H]1[C@H](CC)[C@@H]2CN1C(=O)[C@H](C(C)(C)C)NC(=O)O[C@@H]1C[C@H]1CCCCCc1nc3ccc(OC)cc3nc1O2)C(=O)NS(=O)(=O)C1CC1 [Example 91, (1aR,5S,8S,9S,10R,22aR)-5-tert-butyl-N-{(1R,2S)-1-[(cyclopropylsulfonyl)carbamoyl]-2-ethenylcyclopropyl}-9-ethyl-14-methoxy-3,6-dioxo-1,1a,3,4,5,6,9,10,18,19,20,21,22,22a-tetradecahydro-8H-7,10-methanocyclopropa[18,19][1,10,3,6]dioxadiazacyclononadecino[11,12-b]quinoxaline-8-carboxamide]",3.5 nM,2.4 nM,2.3 nM,4 nM,9.2 nM,25 nM,149 nM,2.4 nM,1.9 nM,1.3 nM
